Experimental data reported in ChEMBL document CHEMBL1143065, “Discovery and characterization of 4'-(2-furyl)-N-pyridin-3-yl-4,5'-bipyrimidin-2'-amine (LAS38096), a potent, selective, and efficacious A2B adenosine receptor antagonist” (J Med Chem, 2007).
Values belong to the compound of their own block, whether it stands above or below them.

How the values were obtained:
Adenosine receptor A3 = target: T1, Adenosine receptor A3 (Homo sapiens, UniProt P0DMS8); test: Displacement of […] from human A3 receptor expressed in HeLa cells; type: cell-based
T1 sequence (P0DMS8 whole entry): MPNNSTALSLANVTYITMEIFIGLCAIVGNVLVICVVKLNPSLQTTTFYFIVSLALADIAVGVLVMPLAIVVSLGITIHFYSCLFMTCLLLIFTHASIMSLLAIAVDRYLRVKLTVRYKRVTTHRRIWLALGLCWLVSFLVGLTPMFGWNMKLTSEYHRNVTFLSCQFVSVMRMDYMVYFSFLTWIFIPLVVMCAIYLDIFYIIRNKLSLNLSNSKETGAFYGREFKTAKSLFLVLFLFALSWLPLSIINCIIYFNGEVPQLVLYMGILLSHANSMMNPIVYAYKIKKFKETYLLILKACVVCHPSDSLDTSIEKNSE

[1] = target: T2, Adenosine receptor A3 (Homo sapiens) (UniProt P0DMS8); test: Displacement of […] from human A3 receptor expressed in HeLa cells at 1000 nM; type: cell-based
T2 sequence (whole entry): T1 sequence (P0DMS8 whole entry)

[2] = target: T3, Adenosine receptor A1 (Homo sapiens) (UniProt P30542); test: Displacement of [3H]DPCPX from human A1 receptor expressed in CHO cells at 10000 nM; type: cell-based
T3 sequence (whole entry): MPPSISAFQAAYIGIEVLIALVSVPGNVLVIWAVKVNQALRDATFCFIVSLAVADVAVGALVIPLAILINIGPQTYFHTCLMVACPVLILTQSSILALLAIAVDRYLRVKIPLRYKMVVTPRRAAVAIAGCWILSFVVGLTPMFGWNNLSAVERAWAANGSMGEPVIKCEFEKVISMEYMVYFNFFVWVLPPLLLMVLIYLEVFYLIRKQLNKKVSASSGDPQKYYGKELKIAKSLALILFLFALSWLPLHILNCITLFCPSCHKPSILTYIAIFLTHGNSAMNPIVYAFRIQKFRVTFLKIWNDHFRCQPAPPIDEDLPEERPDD

Adenosine receptor A2a [3] = target: T4, Adenosine receptor A2a (Homo sapiens, UniProt P29274); test: Displacement of [3H]ZM-241385 from human A2A receptor expressed in HeLa cells; type: cell-based
T4 sequence (P29274 whole entry): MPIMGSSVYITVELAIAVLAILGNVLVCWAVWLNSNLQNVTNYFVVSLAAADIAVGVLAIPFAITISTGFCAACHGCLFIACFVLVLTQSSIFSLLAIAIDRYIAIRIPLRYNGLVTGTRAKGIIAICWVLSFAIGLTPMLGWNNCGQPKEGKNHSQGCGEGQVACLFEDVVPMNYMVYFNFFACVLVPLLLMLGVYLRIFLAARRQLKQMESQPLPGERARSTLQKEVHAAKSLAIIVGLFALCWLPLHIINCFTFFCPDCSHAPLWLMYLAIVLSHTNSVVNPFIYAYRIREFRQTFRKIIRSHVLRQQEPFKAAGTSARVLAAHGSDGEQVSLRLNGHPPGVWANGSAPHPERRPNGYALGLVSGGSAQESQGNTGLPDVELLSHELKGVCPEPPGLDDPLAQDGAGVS

Adenosine receptor A2a [4] = target: T4, Adenosine receptor A2a; test: Displacement of [3H]ZM-241385 from human A2A receptor expressed in HeLa cells at 2500 nM; type: cell-based
Adenosine receptor A1 = target: T5, Adenosine receptor A1 (Homo sapiens, UniProt P30542); test: Displacement of [3H]DPCPX from human A1 receptor expressed in CHO cells; type: cell-based
T5 sequence (P30542 whole entry): T3 sequence (whole entry)

Adenosine receptor A2b [5] = target: T6, Adenosine receptor A2b (Homo sapiens, UniProt P29275); test: Displacement of [3H]DPCPX from human A2B receptor expressed in HEK293 cells; type: cell-based
T6 sequence (P29275 whole entry): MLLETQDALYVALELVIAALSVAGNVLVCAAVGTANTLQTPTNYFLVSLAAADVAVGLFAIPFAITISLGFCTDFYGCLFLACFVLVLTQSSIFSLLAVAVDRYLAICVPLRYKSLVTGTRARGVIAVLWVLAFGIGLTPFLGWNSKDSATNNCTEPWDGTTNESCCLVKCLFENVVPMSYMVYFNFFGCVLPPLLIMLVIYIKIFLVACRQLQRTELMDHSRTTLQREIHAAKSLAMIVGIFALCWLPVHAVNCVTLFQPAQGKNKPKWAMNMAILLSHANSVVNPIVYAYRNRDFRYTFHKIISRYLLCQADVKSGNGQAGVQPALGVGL

[6] = Volume of distribution at steady state in Beagle dog at 1 mg/kg, iv; type: ADME, organism-based, Canis lupus familiaris; set-up: dose 1 mg/kg, route intravenous; conditions: in vivo, read-out: Vdss
[7] = Mean residence time in Wistar rat at 10 mg/kg, po; type: ADME, organism-based; set-up: dose 10 mg/kg, route oral; conditions: in vivo
[8] = AUC in Beagle dog at 10 mg/kg, po; type: ADME, organism-based, Canis lupus familiaris; set-up: dose 10 mg/kg, route oral; conditions: plasma
[9] = Tmax in Wistar rat at 10 mg/kg, po; type: ADME, organism-based; set-up: dose 10 mg/kg, route oral; conditions: in vivo
[10] = Tmax in Swiss mouse at 10 mg/kg, po; type: ADME, organism-based; set-up: dose 10 mg/kg, route oral; conditions: in vivo
[11] = AUC in Swiss mouse at 10 mg/kg, po; type: ADME, organism-based; set-up: dose 10 mg/kg, route oral; conditions: plasma
Rattus norvegicus = test: Clearance in Wistar rat at 1 mg/kg, iv; type: ADME, organism-based; set-up: dose 1 mg/kg, route intravenous; conditions: in vivo
[12] = Half life in Wistar rat at 1 mg/kg, iv; type: ADME, organism-based; set-up: dose 1 mg/kg, route intravenous; conditions: in vivo
Adenosine receptor A2b [13] = target: T7, Adenosine receptor A2b (Mus musculus, UniProt Q60614); test: Inhibition of NECA-induced IL6 production in Swiss mouse fibroblasts after 24 hrs by ELISA; type: functional
T7 sequence (Q60614 whole entry): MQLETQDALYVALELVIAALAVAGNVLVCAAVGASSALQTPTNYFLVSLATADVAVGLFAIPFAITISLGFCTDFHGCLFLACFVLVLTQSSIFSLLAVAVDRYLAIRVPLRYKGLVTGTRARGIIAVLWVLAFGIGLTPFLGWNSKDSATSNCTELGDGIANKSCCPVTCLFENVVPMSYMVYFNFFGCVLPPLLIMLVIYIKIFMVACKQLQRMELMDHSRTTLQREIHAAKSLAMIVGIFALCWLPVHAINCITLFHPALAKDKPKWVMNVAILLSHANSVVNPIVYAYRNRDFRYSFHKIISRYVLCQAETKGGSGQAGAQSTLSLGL

[14] = target: T8, Adenosine receptors; A2b & A3 (Homo sapiens, UniProt P29275+P0DMS8); test: Inhibition of NECA-induced IL6 production in human fibroblast after 24 hrs by ELISA; type: functional
T8 sequence (P29275 whole entry): T6 sequence (P29275 whole entry)
T8 sequence (P0DMS8 whole entry): T1 sequence (P0DMS8 whole entry)

[15] = Cmax in Swiss mouse at 10 mg/kg, po; type: ADME, organism-based; set-up: dose 10 mg/kg, route oral; conditions: in vivo
[16] = Cmax in Beagle dog at 10 mg/kg, po; type: ADME, organism-based, Canis lupus familiaris; set-up: dose 10 mg/kg, route oral; conditions: in vivo
[17] = AUC in Wistar rat at 10 mg/kg, po; type: ADME, organism-based; set-up: dose 10 mg/kg, route oral; conditions: plasma
[18] = Bioavailability in Wistar rat at 10 mg/kg, po; type: ADME, organism-based; conditions: in vivo
[19] = Half life in Beagle dog at 1 mg/kg, iv; type: ADME, organism-based, Canis lupus familiaris; set-up: dose 1 mg/kg, route intravenous; conditions: in vivo
[20] = Mean residence time in Beagle dog at 10 mg/kg, po; type: ADME, organism-based, Canis lupus familiaris; set-up: dose 10 mg/kg, route oral; conditions: in vivo
[21] = Mean residence time in Wistar rat at 1 mg/kg, iv; type: ADME, organism-based; set-up: dose 1 mg/kg, route intravenous; conditions: in vivo
[22] = Cmax in Wistar rat at 10 mg/kg, po; type: ADME, organism-based; set-up: dose 10 mg/kg, route oral; conditions: in vivo
Adenosine receptor A2b [23] = target: T7, Adenosine receptor A2b; test: Activity at mouse A2B receptor expressed in CHO cells assessed as inhibition of NECA-induced intracellular cAMP levels by ELISA; type: functional, cell-based
[24] = Tmax in Beagle dog at 10 mg/kg, po; type: ADME, organism-based, Canis lupus familiaris; set-up: dose 10 mg/kg, route oral; conditions: in vivo
Adenosine receptor A2b [25] = target: T6, Adenosine receptor A2b; test: Activity at human A2B receptor expressed in HEK293 cells assessed as inhibition of NECA-induced intracellular cAMP levels by ELISA; type: functional, cell-based
[26] = target: Adenosine receptor A3 (Mus musculus) (UniProt Q61618); conditions: CHO, 10 uM
Chain of Adenosine receptor A3 (Mus musculus) (Q61618 whole entry, looked up): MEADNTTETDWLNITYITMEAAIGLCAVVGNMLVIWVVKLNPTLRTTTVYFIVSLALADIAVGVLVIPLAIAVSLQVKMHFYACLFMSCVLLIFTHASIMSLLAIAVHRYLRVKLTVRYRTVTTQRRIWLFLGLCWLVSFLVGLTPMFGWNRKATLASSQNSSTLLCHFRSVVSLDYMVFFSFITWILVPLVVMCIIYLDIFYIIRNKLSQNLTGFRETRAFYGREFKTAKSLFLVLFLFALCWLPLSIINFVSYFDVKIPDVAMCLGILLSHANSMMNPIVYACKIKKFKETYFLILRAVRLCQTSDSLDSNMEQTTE
Description: Activity at mouse A3 receptor expressed in CHO cells assessed as inhibition of NECA-induced intracellular cAMP levels at 10 uM by ELISA

[27] = target: T3, Adenosine receptor A1 (Homo sapiens); test: Displacement of [3H]DPCPX from human A1 receptor expressed in CHO cells at 1000 nM; type: cell-based
[28] = Bioavailability in Beagle dog at 10 mg/kg, po; type: ADME, organism-based, Canis lupus familiaris; conditions: in vivo
[29] = Volume of distribution at steady state in Wistar rat at 1 mg/kg, iv; type: ADME, organism-based; set-up: dose 1 mg/kg, route intravenous; conditions: in vivo, read-out: Vdss
[30] = Mean residence time in Beagle dog at 1 mg/kg, iv; type: ADME, organism-based, Canis lupus familiaris; set-up: dose 1 mg/kg, route intravenous; conditions: in vivo
[31] = Clearance in Beagle dog at 1 mg/kg, iv; type: ADME, organism-based, Canis lupus familiaris; set-up: dose 1 mg/kg, route intravenous; conditions: in vivo

SMILES: COc1ccc(Nc2ncc(-c3ccncn3)c(-c3ccco3)n2)cn1
Ki (Adenosine receptor A3): > 1 µM
inhibition [1]: 29%
inhibition [2]: 25%
Ki (Adenosine receptor A2a [3]): > 2.5 µM
inhibition (Adenosine receptor A2a [4]): 21%
Ki (Adenosine receptor A1): > 10 µM
Ki (Adenosine receptor A2b [5]): 0.115 µM

SMILES: c1coc(-c2nc(Nc3cnccn3)ncc2-c2ccncn2)c1
Ki (Adenosine receptor A3): > 1 µM
inhibition [1]: 18%
inhibition [2]: 30%
Ki (Adenosine receptor A2a [3]): > 2.5 µM
inhibition (Adenosine receptor A2a [4]): 21%
Ki (Adenosine receptor A1): > 10 µM
Ki (Adenosine receptor A2b [5]): 0.116 µM

SMILES: N#Cc1cncc(Nc2ncc(-c3ccncn3)c(-c3ccco3)n2)c1
Ki (Adenosine receptor A3): > 1 µM
inhibition [1]: 24%
inhibition [2]: 22%
Ki (Adenosine receptor A2a [3]): > 2.5 µM
inhibition (Adenosine receptor A2a [4]): 37%
Ki (Adenosine receptor A1): > 10 µM
Ki (Adenosine receptor A2b [5]): 0.069 µM

SMILES: c1coc(-c2nc(Nc3cncnc3)ncc2-c2ccncn2)c1
Ki (Adenosine receptor A3): > 1 µM
inhibition [1]: 42%
Ki (Adenosine receptor A2a [3]): > 2.5 µM
inhibition (Adenosine receptor A2a [4]): 29%
IC50 (Adenosine receptor A1): 0.045 µM
Ki (Adenosine receptor A1): > 10 µM
Ki (Adenosine receptor A2b [5]): 0.024 µM

SMILES: c1cncc(Nc2ncc(-c3ccncn3)c(-c3ccco3)n2)c1
Vd [6]: 1.1 L/kg
Ki (Adenosine receptor A3): > 1 µM
inhibition [1]: 36%
MRT [7]: 84 min
AUC [8]: 15 µM·h
Tmax [9]: 18 min
Tmax [10]: 18 min
AUC [11]: 4 µM·h
Ki (Adenosine receptor A2a [3]): > 2.5 µM
clearance (Rattus norvegicus): 25 mL/min/kg
half-life [12]: 12 min
IC50 (Adenosine receptor A2b [13]): 0.64 µM
IC50 [14]: 0.34 µM
Cmax [15]: 13 µM
inhibition (Adenosine receptor A2a [4]): 40%
Cmax [16]: 6 µM
AUC [17]: 16 µM·h
bioavailability [18]: 75%
half-life [19]: 48 min
MRT [20]: 108 min
MRT [21]: 18 min
Cmax [22]: 11 µM
IC50 (Adenosine receptor A2b [23]): 0.349 µM
Ki (Adenosine receptor A1): > 1 µM
Tmax [24]: 78 min
IC50 (Adenosine receptor A2b [25]): 0.321 µM
Ki (Adenosine receptor A2b [5]): 0.017 µM
inhibition [26]: 5%
inhibition [27]: 14%
bioavailability [28]: 81%
Vd [29]: 0.5 L/kg
MRT [30]: 42 min
clearance [31]: 28 mL/min/kg

SMILES: O=c1ccc(Nc2ncc(-c3ccncn3)c(-c3ccco3)n2)cn1CC1CC1
Ki (Adenosine receptor A3): > 1 µM
inhibition [1]: 29%
inhibition [2]: 28%
Ki (Adenosine receptor A2a [3]): > 2.5 µM
inhibition (Adenosine receptor A2a [4]): 38.5%
Ki (Adenosine receptor A1): > 10 µM
Ki (Adenosine receptor A2b [5]): 0.119 µM

Other lines, results leading:

Ki (Adenosine receptor A3): > 1 µM
inhibition [1]: 15%
inhibition [2]: 31%
Ki (Adenosine receptor A2a [3]): > 2.5 µM
inhibition (Adenosine receptor A2a [4]): 25%
Ki (Adenosine receptor A1): > 10 µM
Ki (Adenosine receptor A2b [5]): 0.016 µM
SMILES: O=c1ccc(Nc2ncc(-c3ccncn3)c(-c3ccco3)n2)c[nH]1

Ki (Adenosine receptor A3): > 1 µM
inhibition [1]: 35%
inhibition [2]: 38%
Ki (Adenosine receptor A2a [3]): > 2.5 µM
inhibition (Adenosine receptor A2a [4]): 24%
Ki (Adenosine receptor A1): > 10 µM
Ki (Adenosine receptor A2b [5]): 0.034 µM
SMILES: [O-][n+]1cccc(Nc2ncc(-c3ccncn3)c(-c3ccco3)n2)c1

Ki (Adenosine receptor A3): > 1 µM
inhibition [1]: 28%
inhibition [2]: 17%
Ki (Adenosine receptor A2a [3]): > 2.5 µM
inhibition (Adenosine receptor A2a [4]): 20%
Ki (Adenosine receptor A1): > 10 µM
Ki (Adenosine receptor A2b [5]): 0.028 µM
SMILES: Cn1cc(Nc2ncc(-c3ccncn3)c(-c3ccco3)n2)ccc1=O

Ki (Adenosine receptor A3): > 1 µM
inhibition [1]: 32%
inhibition [2]: 45%
Ki (Adenosine receptor A2a [3]): > 2.5 µM
inhibition (Adenosine receptor A2a [4]): 25%
Ki (Adenosine receptor A1): > 10 µM
Ki (Adenosine receptor A2b [5]): 0.039 µM
SMILES: COc1ncc(Nc2ncc(-c3ccncn3)c(-c3ccco3)n2)cn1
